Experimental data taken from paper PMC8718758, “Using Unnatural Protein Fusions to Engineer a Coenzyme Self-Sufficiency System for D-Phenyllactic Acid Biosynthesis in Escherichia coli” (Frontiers in Bioengineering and Biotechnology, 2021).

Target: T1, LfD-LDH (Limosilactobacillus fermentum, UniProt A0ABF7R291)
T1 construct: gene LAF_0632; gene cloned BamHI/XhoI in pET28a, expressed in E. coli BL21(DE3) (strain CP101); gene primers only in supplement
Experiment: enzymatic conversion of phenylpyruvate to D-phenyllactic acid
Assay type: biochemical
Settings: co-substrate phenylpyruvate, pH 7, 35 °C; paper says only D-LDH here, LfD-LDH inferred; enzyme purity not described

T1 sequence (A0ABF7R291 1-332): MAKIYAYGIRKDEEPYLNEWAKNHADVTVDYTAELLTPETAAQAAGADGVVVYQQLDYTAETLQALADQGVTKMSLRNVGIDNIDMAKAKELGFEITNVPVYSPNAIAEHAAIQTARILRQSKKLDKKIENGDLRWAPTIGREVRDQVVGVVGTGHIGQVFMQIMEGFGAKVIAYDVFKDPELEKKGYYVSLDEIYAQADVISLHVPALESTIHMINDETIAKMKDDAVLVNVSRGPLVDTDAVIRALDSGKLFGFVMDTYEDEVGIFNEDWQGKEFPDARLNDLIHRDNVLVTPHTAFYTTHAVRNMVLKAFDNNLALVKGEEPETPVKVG

NC(=O)C1=CN([C@@H]2O[C@H](COP(=O)(O)OP(=O)(O)OC[C@H]3O[C@@H](n4cnc5c(N)ncnc54)[C@H](O)[C@@H]3O)[C@@H](O)[C@H]2O)C=CC1 [NADH]
enzymatic conversion of phenylpyruvate to D-phenyllactic acid: NADH-dependent D-LDH must rely on NADH to catalyze the conversion of PPA to D-PLA
